According to patent EP0155094A1, “2-Arylimidazo(4,5-c)pyridines” (ELI LILLY AND COMPANY, priority 1984, dated 1985):
Where a name gives a salt, the structure may show the parent alone.

Experiments:
cardiac contractility = assay: Cardiac contractility in anesthetized dogs; assay type: in vivo, Mongrel dogs; conditions: Canis lupus familiaris, iv, i.v. bolus, read-out: ED50 (dose, i.v., which produced a peak increase of 50% over control)
Protocol: Mongrel dogs of either sex ranging in weight from 7 to 14 kg. were used. Anesthesia was induced with sodium pentobarbital (30 mg./kg., i.v.) and maintained with supplemental doses as required. A positive-pressure pump was used to ventilate the dogs through an endotracheal tube (18 strokes/minute, 20 ml./kg. stroke 1), and a heating pad kept the body temperature at 37-38°C. Femoral arterial blood pressure was measured through a polyethylene catheter filled with heparin solution (16 units/ml.) and connected to a Statham pressure transducer. A strain-gauge arch sutured to the right ventricle of the heart measured cardiac contractility. Tension on the gauge was adjusted to 50 g. and the gain of the recorder (Beckman dynograph) was set so that 50 g. caused a 10-mm. pen deflection; cardiac contractile tension was measured as millimeters of pen deflection or grams of tension. The drug was administered following a 30-45 minute equilibrium period as an i.v. bolus (2-5 ml.) in a normal saline vehicle. […] The maximum effects on contractility at various dose levels were calculated as a percent of control (control = 100 percent). The compound of Example 1 produced an ED50 (dose, i.v., which produced a peak increase of 50% over control) of 0.030 mg./kg. while the compound of Example 2 gave an ^ED50 of 6 mcg./kg.

[1] = test system: Isolated Cat Papillary Muscles; assay: Positive inotropic activity in isolated cat papillary muscles; set-up: species or system Cats; conditions: Felis catus, maximum contractility, isolated cat papillary muscle, read-out: contractility, percent of control (control = 100 percent); for activity at 100 µM: 10^-4 M; for activity at 10 µM: 10^-5 M
Protocol: Cats of either sex were anesthetized with Metofane (1,1-difluoro-2,2-dichloroethyl methyl ether, Pittman-Moore) their hearts immediately removed and the papillary muscles dissected and suspended in individual organ baths. A platinum hook secured one end of the muscle to an electrode mounted in the bottom of the bath, and a silk thread attached the tendon to a Statham isometric transducer. The baths contained Krebs-Henseleit solution (36°C., bubbled with 95 percent oxygen - 5 percent carbon dioxide) of the following millimolar composition: NaCl, 118; KCl, 4.5; CaCl2, 2.5; KH2PO4, 1.1; MgS04, 1.2; NaHCO3, 25; and glucose, 11.
A base-line tension of 1.5 g. was applied to each muscle. Square-wave pulses (5.0 msec. in duration, 20 percent above threshold voltage) delivered through the hook electrode and a second electrode positioned near the top of the muscle evoked 12 contractions/minute, which were recorded on a Grass polygraph. After the muscles were equilibrated for 60 minutes, drugs were introduced in normal saline to bring the final concentration of the drug to 10 5 or 10^-4 molar. Increases in contractility were tabulated as millimeters of pen deflection in excess of the baseline values. In each experiment the maximum contractility was measured. As a percent of control (control = 100 percent), the compound of Example 1 produced a contractility of 149% at 10^-5 M and 168% at 10^-4 M and the compound of Example 2 gave a contractility of 240% at 10^-5M and 326% at 10^-4M.

COc1cc(NS(C)(=O)=O)ccc1-c1nc2cnccc2[nH]1 [Example 1, 2-(2-Methoxy-4-methylsulfonamidophenyl)imidazo[4,5-c]pyridine]
ED50 (cardiac contractility): 0.03 mg/kg
activity at 100 µM [1]: 168%
activity at 10 µM [1]: 149%

COc1cc(OS(C)(=O)=O)ccc1-c1nc2cnccc2[nH]1 [Example 2, 4-(Imidazo[4,5-c]pyridin-2-yl)-3-methoxyphenol, methanesulfonate (ester) hydrochloride]
ED50 (cardiac contractility): 0.006 mg/kg
activity at 100 µM [1]: 326%
activity at 10 µM [1]: 240%
